Among the data in patent publication US20260116889A1, “MACROCYCLIC PYRIMIDINE DERIVATIVE, METHOD FOR PREPARING SAME, AND PHARMACEUTICAL COMPOSITION FOR PREVENTION OR TREATMENT OF NEURODEGENERATIVE DISEASE CONTAINING SAME AS ACTIVE INGREDIENT” (WHAN IN PHARMACEUTICAL CO., LTD., priority 2021, published 2026) are IC50 values, retold here.

By IC50 is commonly meant the midpoint of a concentration-inhibition curve. Lower therefore signals greater potency.

Assay [1] deals with T1, G2019S mutant of LRRK2 (leucine-rich repeat kinase 2) (Homo sapiens, UniProt Q5S007, G2019S).
T1 construct: purchased Reaction Biology Corporation
The assay can be described thus: HotSpot radiometric kinase assay (Reaction Biology), LRRK2 G2019S mutant inhibitory activity. The conditions noted are these: 10 μM ATP, 25° C., 120 min. In kind it is biochemical. How it is done: (§1) The experimental method was as follows.
(§2) Specific kinase/substrate pairs were prepared in reaction buffer (20 mM Hepes pH 7.5, 10 mM MgCl2, 1 mM EGTA, 0.02% Brij35, 0.02 mg/ml BSA, 0.1 mM Na3VO4, 2 mM DTT, 1% DMSO) along with the required cofactors. The compounds were transferred to the reaction, and after 20 min, a mixture of ATP (Sigma) and ^33P ATP (PerkinElmer) was added to a final concentration of 10 μM. The reaction was carried out at 25° C. for 120 min and then dropped onto P81 ion exchange filter paper (Whatman). […] IC50 values were obtained using Prism (GraphPad Software).

Assay [2] has as its target T2, wild type LRRK2 (leucine-rich repeat kinase 2) (Homo sapiens, UniProt Q5S007).
T2 construct: purchased Reaction Biology Corporation
Nature of the assay: HotSpot radiometric kinase assay (Reaction Biology), LRRK2 wild type inhibitory activity. Format: biochemical. The settings on record: 10 μM ATP, 25° C., 120 min. How it is done: as §1, §2

T2 sequence (Q5S007 whole entry): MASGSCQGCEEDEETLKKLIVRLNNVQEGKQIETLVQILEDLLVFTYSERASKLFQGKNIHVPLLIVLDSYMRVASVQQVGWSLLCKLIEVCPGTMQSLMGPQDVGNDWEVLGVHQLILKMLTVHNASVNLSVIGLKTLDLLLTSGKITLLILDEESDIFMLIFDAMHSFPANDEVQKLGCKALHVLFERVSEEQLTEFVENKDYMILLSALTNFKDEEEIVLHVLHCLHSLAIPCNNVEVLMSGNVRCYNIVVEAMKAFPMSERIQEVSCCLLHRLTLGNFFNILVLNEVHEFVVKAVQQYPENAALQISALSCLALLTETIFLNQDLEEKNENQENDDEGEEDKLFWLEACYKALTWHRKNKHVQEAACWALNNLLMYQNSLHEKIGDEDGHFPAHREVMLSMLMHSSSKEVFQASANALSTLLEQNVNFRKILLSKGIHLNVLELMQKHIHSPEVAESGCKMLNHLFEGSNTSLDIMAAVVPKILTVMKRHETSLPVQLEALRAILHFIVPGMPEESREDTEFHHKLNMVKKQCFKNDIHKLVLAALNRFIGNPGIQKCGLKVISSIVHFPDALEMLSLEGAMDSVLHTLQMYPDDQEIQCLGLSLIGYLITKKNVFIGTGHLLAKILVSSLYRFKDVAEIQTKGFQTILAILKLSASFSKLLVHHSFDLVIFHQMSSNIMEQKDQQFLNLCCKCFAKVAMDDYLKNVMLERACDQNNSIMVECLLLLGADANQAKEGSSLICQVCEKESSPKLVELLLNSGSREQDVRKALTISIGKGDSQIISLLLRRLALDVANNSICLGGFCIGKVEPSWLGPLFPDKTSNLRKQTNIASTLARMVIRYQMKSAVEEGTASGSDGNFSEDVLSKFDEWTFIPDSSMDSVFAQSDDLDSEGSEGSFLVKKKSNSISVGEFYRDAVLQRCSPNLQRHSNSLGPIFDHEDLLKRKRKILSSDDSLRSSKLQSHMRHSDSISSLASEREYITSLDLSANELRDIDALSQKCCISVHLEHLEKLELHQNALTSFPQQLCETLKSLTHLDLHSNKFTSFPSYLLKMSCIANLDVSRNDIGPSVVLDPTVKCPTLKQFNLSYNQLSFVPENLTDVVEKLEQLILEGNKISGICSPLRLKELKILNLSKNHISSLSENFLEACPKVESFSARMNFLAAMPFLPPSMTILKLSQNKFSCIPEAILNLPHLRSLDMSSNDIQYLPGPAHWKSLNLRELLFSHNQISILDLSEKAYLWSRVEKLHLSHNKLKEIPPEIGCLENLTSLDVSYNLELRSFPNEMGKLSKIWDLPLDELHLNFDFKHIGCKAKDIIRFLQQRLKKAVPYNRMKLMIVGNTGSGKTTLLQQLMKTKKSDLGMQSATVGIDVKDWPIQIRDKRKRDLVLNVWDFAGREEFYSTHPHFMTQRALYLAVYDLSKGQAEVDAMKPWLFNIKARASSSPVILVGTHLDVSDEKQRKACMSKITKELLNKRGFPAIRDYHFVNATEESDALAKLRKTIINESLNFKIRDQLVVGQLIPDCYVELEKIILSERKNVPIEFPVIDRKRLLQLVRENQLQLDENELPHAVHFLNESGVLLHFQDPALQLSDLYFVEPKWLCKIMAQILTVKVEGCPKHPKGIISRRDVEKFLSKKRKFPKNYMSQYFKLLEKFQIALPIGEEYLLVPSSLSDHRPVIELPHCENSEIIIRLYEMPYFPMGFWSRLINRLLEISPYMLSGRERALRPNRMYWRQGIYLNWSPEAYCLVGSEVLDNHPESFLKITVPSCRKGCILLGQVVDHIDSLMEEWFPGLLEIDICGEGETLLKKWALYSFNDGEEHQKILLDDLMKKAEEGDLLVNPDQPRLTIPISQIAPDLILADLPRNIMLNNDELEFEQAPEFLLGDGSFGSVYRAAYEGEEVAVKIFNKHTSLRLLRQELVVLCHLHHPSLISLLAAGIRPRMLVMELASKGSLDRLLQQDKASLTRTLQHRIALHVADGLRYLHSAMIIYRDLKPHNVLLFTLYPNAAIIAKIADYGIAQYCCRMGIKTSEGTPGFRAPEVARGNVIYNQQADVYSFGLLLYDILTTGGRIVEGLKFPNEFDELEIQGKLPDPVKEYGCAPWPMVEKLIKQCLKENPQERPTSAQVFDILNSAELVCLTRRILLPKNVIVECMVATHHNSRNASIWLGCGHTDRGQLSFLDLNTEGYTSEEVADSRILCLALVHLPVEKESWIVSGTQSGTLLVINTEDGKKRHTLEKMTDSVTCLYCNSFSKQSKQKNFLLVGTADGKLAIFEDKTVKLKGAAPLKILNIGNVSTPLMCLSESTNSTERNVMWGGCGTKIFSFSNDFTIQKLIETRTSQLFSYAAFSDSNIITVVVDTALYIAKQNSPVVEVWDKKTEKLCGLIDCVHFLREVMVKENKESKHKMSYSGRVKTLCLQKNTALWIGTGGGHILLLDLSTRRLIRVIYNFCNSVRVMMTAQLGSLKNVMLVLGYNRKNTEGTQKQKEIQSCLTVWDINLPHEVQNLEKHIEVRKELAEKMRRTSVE
T1 sequence (Q5S007 whole entry G2019S): as the sequence (Q5S007 whole entry) above, with G2019S counted along it

`CN1CCNc2nc(ncc2Cl)Nc2cccc(c2)C1=O` [Example 2, 1^5-chloro-5-methyl-2,5,8-triaza-1 (2,4)-pyrimidina-3 (1,3)-benzenacyclooctaphane-4-one]: the IC50 came out at 19.3 nM in assay [1] and 17 nM in assay [2].

`O=C1NCCCCNc2nc(ncc2Cl)Nc2cccc1c2` [Example 3, 1^5-chloro-2,5,10-triaza-1 (2,4)-pyrimidina-3 (1,3)-benzenacyclodecarphane-4-one]: the IC50 in assay [1] came out at 13.1 nM; in assay [2], 15.9 nM.

Turning to `COc1ccc2cc1Nc1ncc(F)c(n1)NCCN(C)C2=O` [Example 7, 1^5-fluoro-3^6-methoxy-5-methyl-2,5,8-triaza-1 (2,4)-pyrimidina-3 (1,3)-benzenacyclooctaphane-4-one], the IC50 turned out to be 34.1 nM in assay [1] and 35.5 nM in assay [2].

Regarding `COc1ccc2cc1C(=O)N(C)CCNc1nc(ncc1Cl)N2` [Example 9, 1^5-chloro-3^4-methoxy-5-methyl-2,5,8-triaza-1 (2,4)-pyrimidina-3 (1,3)-benzenacyclooctaphane-4-one;2,2,2-trifluoroacetate], the IC50 in assay [1] turned out to be 79.7 nM; in assay [2], 91.1 nM.

For the compound `COc1ccc2cc1C(=O)N(C)CCCCNc1nc(ncc1Cl)N2` [Example 18, 1^5-chloro-3^4-methoxy-5-methyl-2,5,10-triaza-1 (2,4)-pyrimidina-3 (1,3)-benzenacyclodecarphane-4-one;2,2,2-trifluoroacetate], the figures for the IC50 in assay [1] and in assay [2] were 145 nM and 142 nM, respectively.

Regarding `CCc1ccc2cc1Nc1ncc(Cl)c(n1)NCCCCN(C)C2=O` [Example 19, 1^5-chloro-3^6-ethyl-5-methyl-2,5,10-triaza-1 (2,4)-pyrimidina-3 (1,3)-benzenacyclodecarphane-4-one;2,2,2-trifluoroacetate], the IC50 amounted to 6.86 nM in assay [1] and 13.4 nM in assay [2].

Take `COc1ccc2cc1Nc1ncc(Cl)c(n1)N(C)CCN(C)C2=O` [Example 20, 1^5-chloro-3^6-methoxy-5,8-dimethyl-2,5,8-triaza-1 (2,4)-pyrimidina-3 (1,3)-benzenacyclooctaphane-4-one;2,2,2-trifluoroacetate]: the IC50 in assay [1] was determined as 3.51 nM; in assay [2] it was 3.44 nM.

Consider `CCN1CCNc2nc(ncc2Cl)Nc2cc(ccc2OC)C1=O` [Example 21, 1^5-chloro-5-ethyl-3^6-methoxy-2,5,8-triaza-1 (2,4)-pyrimidina-3 (1,3)-benzenacyclooctaphane-4-one;2,2,2-trifluoroacetate], for which the IC50 in assay [1] was determined as 3.09 nM; in assay [2], 11.1 nM.

In the case of `COc1ccc2cc1Nc1ncc(Cl)c(n1)NCCN(C(C)C)C2=O` [Example 22, 1^5-chloro-5-isopropyl-3^6-methoxy-2,5,8-triaza-1 (2,4)-pyrimidina-3 (1,3)-benzenacyclooctaphane-4-one], the figures for the IC50 in assay [1] and in assay [2] were 0.98 nM and 5.06 nM, respectively.

For `COc1ccc2cc1Nc1ncc(Cl)c(n1)N(C)CCCN(C)C2=O` [Example 23, 1^5-chloro-3^6-methoxy-5,9-dimethyl-2,5,9-triaza-1 (2,4)-pyrimidina-3 (1,3)-benzenacyclononapane-4-one;2,2,2-trifluoroacetate], the IC50 was less than 0.254 nM in assay [1] and 0.667 nM in assay [2].

In the case of `COc1ccc2cc1Nc1ncc(C(F)(F)F)c(n1)N(C)CCN(C)C2=O` [Example 25, 3^6-methoxy-5,8-dimethyl-1^5-(trifluoromethyl)-2,5,8-triaza-1 (2,4)-pyrimidina-3 (1,3)-benzenacyclooctaphane-4-one;2,2,2-trifluoroacetate], the IC50 came to 25.7 nM in assay [1] and 62.9 nM in assay [2].

With `COc1ccc2cc1Nc1ncc(Cl)c(n1)N(C)CCCCN(C)C2=O` [Example 27, 1^5-chloro-3^6-methoxy-5,10-dimethyl-2,5,10-triaza-1 (2,4)-pyrimidina-3 (1,3)-benzenacyclodecarphane-4-one;2,2,2-trifluoroacetate], the results for the IC50 in assay [1] and in assay [2] were 2 nM and 5.42 nM, respectively.

For `COc1ccc2cc1Nc1ncc(C(F)(F)F)c(n1)N(C)CCCCN(C)C2=O` [Example 29, 3^6-methoxy-5,10-dimethyl-1^5-(trifluoromethyl)-2,5,10-triaza-1 (2,4)-pyrimidina-3 (1,3)-benzenacyclodecarphane-4-one;2,2,2-trifluoroacetate], the half-maximal inhibitory concentration (IC50) stood at 0.72 nM in assay [1] and 1.79 nM in assay [2].

For the compound `CN1CCCN(C)c2nc(ncc2C(F)(F)F)Nc2cc(ccc2OC(F)(F)F)C1=O` [Example 30, 5,9-dimethyl-3^6-(trifluoromethoxy)-1^5-(trifluoromethyl)-2,5,9-triaza-1 (2,4)-pyrimidina-3 (1,3)-benzenacyclononapane-4-one], the IC50 in assay [1] is 0.574 nM; in assay [2], 1.73 nM.

As to `CN1CCCN(C)c2nc(ncc2C(F)(F)F)Nc2cc(ccc2C(F)(F)F)C1=O` [Example 31, 5,9-dimethyl-15,36-bis(trifluoromethyl)-2,5,9-triaza-1 (2,4)-pyrimidina-3 (1,3)-benzenacyclononapane-4-one], the IC50 in assay [1] came to 33.4 nM; in assay [2] it was 58.1 nM.

In the case of `CN1CCCNc2nc(ncc2C(F)(F)F)Nc2cc(ccc2OC2COC2)C1=O` [Example 38, 5-methyl-3^6-(oxetane-3-yloxy)-1^5-(trifluoromethyl)-2,5,9-triaza-1 (2,4)-pyrimidina-3 (1,3)-benzenacyclonaphane-4-one], the IC50 in assay [1] came out at 46.7 nM; in assay [2], 22.2 nM.

Turning to `CN1CCCNc2nc(ncc2Cl)Nc2cc(ccc2OC(F)(F)F)C1=O` [Example 40, 1^5-chloro-5-methyl-3^6-(trifluoromethoxy)-2,5,9-triaza-1 (2,4)-pyrimidina-3 (1,3)-benzenacyclonaphane-4-one], the IC50 came to 3.81 nM in assay [1] and 5.47 nM in assay [2].

Consider `CN1CCCNc2nc(ncc2C(F)(F)F)Nc2cc(ccc2OC(F)(F)F)C1=O` [Example 41, 5-methyl-36-(trifluoromethoxy)-1^5-(trifluoromethyl)-2,5,9-triaza-1 (2,4)-pyrimidina-3 (1,3)-benzenacyclonaphane-4-one], for which the IC50 turned out to be 3.08 nM in assay [1] and 4.82 nM in assay [2].

Consider `COc1ccc2cc1Nc1ncc(Cl)c(n1)OCCCN(C)C2=O` [Example 42, 15-chloro-3^6-methoxy-5-methyl-9-oxa-2,5-diaza-1 (2,4)-pyrimidina-3 (1,3)-benzenacyclonaphane-4-one], for which the IC50 is 5.14 nM in assay [1] and 5.91 nM in assay [2].

As to `COc1ccc2cc1Nc1ncc(C(F)(F)F)c(n1)OCCCN(C)C2=O` [Example 43, 3^6-methoxy-5-methyl-1^5-(trifluoromethyl)-9-oxa-2,5-diaza-1 (2,4)-pyrimidina-3 (1,3)-benzenacyclonaphane-4-one], the concentration for half-maximal inhibition (IC50) in assay [1] turned out to be 2.07 nM; in assay [2], 4.87 nM.

`CN1CCCOc2nc(ncc2C(F)(F)F)Nc2cc(ccc2OC(F)(F)F)C1=O` [Example 44, 5-methyl-3^6-(trifluoromethoxy)-1^5-(trifluoromethyl)-9-oxa-2,5-diaza-1 (2,4)-pyrimidina-3 (1,3)-benzenacyclonaphane-4-one]: the IC50 stood at 10.5 nM in assay [1] and 16.2 nM in assay [2].

`COc1c(F)cc2cc1Nc1ncc(C(F)(F)F)c(n1)OCCCN(C)C2=O` [Example 45, 3^5-fluoro-3^6-methoxy-5-methyl-1^5-(trifluoromethyl)-9-oxa-2,5-diaza-1 (2,4)-pyrimidina-3 (1,3)-benzenacyclonaphane-4-one]: the figures for the IC50 in assay [1] and in assay [2] were 4.8 nM and 10.2 nM, respectively.
